# Test results taken from PubChem BioAssay AID1963973 (Molecular Pharmacology Branch, DTP, NCI, 2024).
# “And” between values parts separate entries of the source, which are not always exact repeats. Identical values can stand only once.
# Tested on: 883617-216-R-J1-PDC tumor spheroids, viability
# Assay: Anticancer human tumor 883617-216-R-J1-PDC patient-derived bladder carcinoma cell line growth inhibition [PI3K]
# Conditions: spheroids with HUVEC and MSC; for viability, T/C: stronger effect = lower value
# In short: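 Viability of mixed-cell spheroids was determined after exposure to pairwise combinations, one partner being inavolisib, alpelisib, duvelisib or copanlisib. Highest tested concentration matched clinical Cmax where known and 10 microM where not, descending in half-log steps.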
# [1] = curve of first compound, second compound 0.00316 µM
# [2] = curve of first compound, second compound 0.01 µM
# [3] = curve of first compound, second compound 0.0316 µM
# [4] = curve of first compound, second compound 0.1 µM
# [5] = curve of first compound, second compound 0.316 µM
# [6] = curve of first compound, second compound 1 µM
# [7] = second compound 0.00316 µM, first compound 0.0316 µM
# [8] = second compound 0.00316 µM, first compound 0.1 µM
# [9] = second compound 0.00316 µM, first compound 0.316 µM
# [10] = second compound 0.00316 µM, first compound 1 µM
# [11] = second compound 0.01 µM, first compound 0.0316 µM
# [12] = second compound 0.01 µM, first compound 0.1 µM
# [13] = second compound 0.01 µM, first compound 0.316 µM
# [14] = second compound 0.01 µM, first compound 1 µM
# [15] = second compound 0.0316 µM, first compound 0.0316 µM
# [16] = second compound 0.0316 µM, first compound 0.1 µM
# [17] = second compound 0.0316 µM, first compound 0.316 µM
# [18] = second compound 0.0316 µM, first compound 1 µM
# [19] = second compound 0.1 µM, first compound 0.0316 µM
# [20] = second compound 0.1 µM, first compound 0.1 µM
# [21] = second compound 0.1 µM, first compound 0.316 µM
# [22] = second compound 0.1 µM, first compound 1 µM
# [23] = second compound 0.316 µM, first compound 0.0316 µM
# [24] = second compound 0.316 µM, first compound 0.1 µM
# [25] = second compound 0.316 µM, first compound 0.316 µM
# [26] = second compound 0.316 µM, first compound 1 µM
# [27] = second compound 1 µM, first compound 0.0316 µM
# [28] = second compound 1 µM, first compound 0.1 µM
# [29] = second compound 1 µM, first compound 0.316 µM
# [30] = second compound 1 µM, first compound 1 µM
# [31] = second compound 0.0316 µM, first compound 3.16 µM
# [32] = second compound 0.0316 µM, first compound 10 µM
# [33] = second compound 0.1 µM, first compound 3.16 µM
# [34] = second compound 0.1 µM, first compound 10 µM
# [35] = second compound 0.316 µM, first compound 3.16 µM
# [36] = second compound 0.316 µM, first compound 10 µM
# [37] = second compound 1 µM, first compound 3.16 µM
# [38] = second compound 1 µM, first compound 10 µM
# 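Note: spheroids exposed to agents for 7 days before the viability read.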
structure (smiles),measurement,setting,value
CCN1CCN(Cc2ccc(Nc3ncc(F)c(-c4cc(F)c5nc(C)n(C(C)C)c5c4)n3)nc2)CC1 + CC(Nc1ccc2c(c1)OCCn1cc(N3C(=O)OCC3C(F)F)nc1-2)C(N)=O,IC50,[1],203 nM
same,IC50,[2],166 nM
same,IC50,[3],122 nM
same,IC50,[4],< 3.16 nM
same,IC50,[5],< 3.16 nM
same,IC50,[6],< 3.16 nM
same,"viability, T/C","second compound 0.00316 µM, first compound 0.00316 µM",86%
same,"viability, T/C","second compound 0.00316 µM, first compound 0.01 µM",80.7%
same,"viability, T/C",[7],59.5%
same,"viability, T/C",[8],58.4%
same,"viability, T/C",[9],46.2%
same,"viability, T/C",[10],43.8%
same,"viability, T/C","second compound 0.01 µM, first compound 0.00316 µM",73.8%
same,"viability, T/C","second compound 0.01 µM, first compound 0.01 µM",63.2%
same,"viability, T/C",[11],59.4%
same,"viability, T/C",[12],51.1%
same,"viability, T/C",[13],47.1%
same,"viability, T/C",[14],45%
same,"viability, T/C","second compound 0.0316 µM, first compound 0.00316 µM",57%
same,"viability, T/C","second compound 0.0316 µM, first compound 0.01 µM",55.4%
same,"viability, T/C",[15],52.6%
same,"viability, T/C",[16],52.6%
same,"viability, T/C",[17],37.5%
same,"viability, T/C",[18],36.3%
same,"viability, T/C","second compound 0.1 µM, first compound 0.00316 µM",49.3%
same,"viability, T/C","second compound 0.1 µM, first compound 0.01 µM",34.4%
same,"viability, T/C",[19],30.7%
same,"viability, T/C",[20],31%
same,"viability, T/C",[21],30.9%
same,"viability, T/C",[22],24.4%
same,"viability, T/C","second compound 0.316 µM, first compound 0.00316 µM",26.3%
same,"viability, T/C","second compound 0.316 µM, first compound 0.01 µM",26.8%
same,"viability, T/C",[23],18%
same,"viability, T/C",[24],19.9%
same,"viability, T/C",[25],15.4%
same,"viability, T/C",[26],17%
same,"viability, T/C","second compound 1 µM, first compound 0.00316 µM",13.8%
same,"viability, T/C","second compound 1 µM, first compound 0.01 µM",14%
same,"viability, T/C",[27],11.2%
same,"viability, T/C",[28],11.2%
same,"viability, T/C",[29],11.5%
same,"viability, T/C",[30],11.1%
C[C@@H](NC(=O)c1ncnc(N)c1Cl)c1ncc(C(=O)Nc2cc(C(F)(F)F)c(Cl)cn2)s1,"viability, T/C",compound 0.1 µM,96.9% [middle of 4 runs]
same,"viability, T/C",compound 0.316 µM,88.3% [middle of 4 runs]
same,"viability, T/C",compound 1 µM,96.5% [middle of 4 runs]
same,"viability, T/C",compound 3.16 µM,93.2% (2×) and 95.3% and 100%
same,"viability, T/C",compound 10 µM,73% [middle of 4 runs]
same,IC50,curve of compound,> 10000 nM
CC1(C)CCC(Nc2ncc(C(F)(F)F)c(-c3c[nH]c4c(P(C)(C)=O)c(C#N)ccc34)n2)CN1 (stereo unspecified) + COc1c(OCCCN2CCOCC2)ccc2c3n(c(=NC(=O)c4cnc(N)nc4)nc12)CCN3,IC50,[1],< 31.6 nM
same,IC50,[2],< 31.6 nM
same,IC50,[3],< 31.6 nM
same,IC50,[4],< 31.6 nM
same,IC50,[5],< 31.6 nM
same,IC50,[6],< 31.6 nM
same,"viability, T/C",[7],30.3%
same,"viability, T/C",[8],35%
same,"viability, T/C",[9],33%
same,"viability, T/C",[10],32.9%
same,"viability, T/C","second compound 0.00316 µM, first compound 3.16 µM",13.7%
same,"viability, T/C","second compound 0.00316 µM, first compound 10 µM",0.49%
same,"viability, T/C",[11],31.4%
same,"viability, T/C",[12],29.6%
same,"viability, T/C",[13],24.3%
same,"viability, T/C",[14],23.4%
same,"viability, T/C","second compound 0.01 µM, first compound 3.16 µM",15.2%
same,"viability, T/C","second compound 0.01 µM, first compound 10 µM",1.02%
same,"viability, T/C",[15],20.4%
same,"viability, T/C",[16],22.8%
same,"viability, T/C",[17],24.7%
same,"viability, T/C",[18],21.6%
same,"viability, T/C",[31],9.22%
same,"viability, T/C",[32],0.59%
same,"viability, T/C",[19],15.2%
same,"viability, T/C",[20],12.5%
same,"viability, T/C",[21],12.8%
same,"viability, T/C",[22],10.9%
same,"viability, T/C",[33],6.57%
same,"viability, T/C",[34],1.66%
same,"viability, T/C",[23],5.18%
same,"viability, T/C",[24],4.62%
same,"viability, T/C",[25],4.01%
same,"viability, T/C",[26],4.88%
same,"viability, T/C",[35],1.53%
same,"viability, T/C",[36],0.09%
same,"viability, T/C",[27],2.28%
same,"viability, T/C",[28],1.83%
same,"viability, T/C",[29],1.8%
same,"viability, T/C",[30],1.55%
same,"viability, T/C",[37],0.47%
same,"viability, T/C",[38],0.27%
C#Cc1c(F)ccc2cc(O)cc(-c3ncc4c(N5CC6CCC(C5)N6)nc(OCC56CCCN5CC(F)C6)nc4c3F)c12 (stereo unspecified) + CC(Nc1ncnc2nc[nH]c12)c1cc2cccc(Cl)c2c(=O)n1-c1ccccc1,IC50,[3],> 10000 nM
same,IC50,[4],> 10000 nM
same,IC50,[5],> 10000 nM
same,IC50,[6],> 10000 nM
same,IC50,"curve of first compound, second compound 3.16 µM",5970 nM
same,IC50,"curve of first compound, second compound 10 µM",120 nM
same,"viability, T/C",[15],91.5%
same,"viability, T/C",[16],109%
same,"viability, T/C",[17],84.2%
same,"viability, T/C",[18],94.8%
same,"viability, T/C",[31],78%
same,"viability, T/C",[32],61.1%
same,"viability, T/C",[19],101%
same,"viability, T/C",[20],96.7%
same,"viability, T/C",[21],95.1%
same,"viability, T/C",[22],84.9%
same,"viability, T/C",[33],94.8%
same,"viability, T/C",[34],56.5%
same,"viability, T/C",[23],77.6%
same,"viability, T/C",[24],86.1%
same,"viability, T/C",[25],78.5%
same,"viability, T/C",[26],94.3%
same,"viability, T/C",[35],76.4%
same,"viability, T/C",[36],54.5%
same,"viability, T/C",[27],84.1%
same,"viability, T/C",[28],81.9%
same,"viability, T/C",[29],74.2%
same,"viability, T/C",[30],73%
same,"viability, T/C",[37],69.9%
same,"viability, T/C",[38],49.7%
same,"viability, T/C","second compound 3.16 µM, first compound 0.0316 µM",77.6%
same,"viability, T/C","second compound 3.16 µM, first compound 0.1 µM",70.4%
same,"viability, T/C","second compound 3.16 µM, first compound 0.316 µM",60.3%
same,"viability, T/C","second compound 3.16 µM, first compound 1 µM",70.7%
same,"viability, T/C","second compound 3.16 µM, first compound 3.16 µM",55.1%
same,"viability, T/C","second compound 3.16 µM, first compound 10 µM",44.3%
same,"viability, T/C","second compound 10 µM, first compound 0.0316 µM",52.1%
same,"viability, T/C","second compound 10 µM, first compound 0.1 µM",56.4%
same,"viability, T/C","second compound 10 µM, first compound 0.316 µM",39.1%
same,"viability, T/C","second compound 10 µM, first compound 1 µM",45.1%
same,"viability, T/C","second compound 10 µM, first compound 3.16 µM",33.2%
same,"viability, T/C","second compound 10 µM, first compound 10 µM",26.6%
CC1(C)CCC(CN2CCN(c3ccc(C(=O)NS(=O)(=O)c4ccc(NCC5CCOCC5)c([N+](=O)[O-])c4)c(Oc4cnc5[nH]ccc5c4)c3)CC2)=C(c2ccc(Cl)cc2)C1,"viability, T/C",compound 0.0316 µM,105% [middle of 4 runs]
same,"viability, T/C",compound 1 µM,94.3% [middle of 4 runs]
same,"viability, T/C",compound 3.16 µM,92.8% [middle of 4 runs]
same,IC50,curve of compound,> 10000 nM and 5360 nM and 5660 nM
